Test results as given in patent US20250171438A1 (Agios Pharmaceuticals, Inc., priority 2022, published 2025).

molecular target: T1, human PAH with the R408W mutation (Homo sapiens, UniProt P00439, R408W); assay: Cell Based Phenylalanine Flux Assay; conditions: A375 cells expressing human R408W PAH; 24 hrs compound incubation; 13C-Tyrosine by LC-MS; average where tested multiple times; read-out: AC50
T1 construct: expressed in transfected cells
T1 sequence (P00439 1-452 R408W): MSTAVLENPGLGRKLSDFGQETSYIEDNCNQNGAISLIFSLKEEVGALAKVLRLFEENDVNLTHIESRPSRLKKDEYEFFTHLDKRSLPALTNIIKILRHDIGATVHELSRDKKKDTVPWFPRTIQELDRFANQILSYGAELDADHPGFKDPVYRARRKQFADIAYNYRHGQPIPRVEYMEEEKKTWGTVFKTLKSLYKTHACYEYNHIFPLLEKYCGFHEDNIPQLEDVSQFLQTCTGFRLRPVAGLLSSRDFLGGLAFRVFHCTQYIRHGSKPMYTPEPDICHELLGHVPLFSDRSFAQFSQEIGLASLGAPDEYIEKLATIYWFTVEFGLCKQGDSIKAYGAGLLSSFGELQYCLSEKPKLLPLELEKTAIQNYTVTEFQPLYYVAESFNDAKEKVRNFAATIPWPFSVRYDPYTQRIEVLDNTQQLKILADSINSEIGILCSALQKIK

AC50 [µM] | SMILES
0.5 to 1 | COCCc1nc(C)c(C(=O)N2CCc3[nH]cnc3[C@H]2c2nc3ccccc3s2)o1 [Example 1729, (S)-(4-(benzo[d]thiazol-2-yl)-1,4,6,7-tetrahydro-5H-imidazo[4,5-c]pyridin-5-yl)(2-(2-methoxyethyl)-4-methyloxazol-5-yl)methanone]
> 5 | COCCc1nc(C)c(C(=O)N2CCc3[nH]cnc3[C@@H]2c2nc3ccccc3s2)o1 [Example 1730, (R)-(4-(benzo[d]thiazol-2-yl)-1,4,6,7-tetrahydro-5H-imidazo[4,5-c]pyridin-5-yl)(2-(2-methoxyethyl)-4-methyloxazol-5-yl)methanone]
< 0.5 | Cn1nc(C(F)F)cc1C(=O)N1CCc2[nH]cnc2[C@H]1c1nc2c(F)cccc2s1 [Example 1731, (S)-(3-(difluoromethyl)-1-methyl-1H-pyrazol-5-yl)(4-(4-fluorobenzo[d]thiazol-2-yl)-6,7-dihydro-1H-imidazo[4,5-c]pyridin-5(4H)-yl)methanone]
1 to 5 | Cn1nc(C(F)F)cc1C(=O)N1CCc2[nH]cnc2[C@@H]1c1nc2c(F)cccc2s1 [Example 1732, (R)-(3-(difluoromethyl)-1-methyl-1H-pyrazol-5-yl)(4-(4-fluorobenzo[d]thiazol-2-yl)-6,7-dihydro-1H-imidazo[4,5-c]pyridin-5(4H)-yl)methanone]
0.5 to 1 | Cn1ncc(Cl)c1C(=O)N1CCc2[nH]cnc2[C@H]1c1nc2c(F)cccc2s1 [Example 1733]
0.5 to 1 | Cn1ncc(Cl)c1C(=O)N1CCc2[nH]cnc2[C@@H]1c1nc2c(F)cccc2s1 [Example 1734, (R)-(4-chloro-1-methyl-1H-pyrazol-5-yl)(4-(4-fluorobenzo[d]thiazol-2-yl)-6,7-dihydro-1H-imidazo[4,5-c]pyridin-5(4H)-yl)methanone]
< 0.5 | O=C(c1ccnn1C1CC1)N1CCc2[nH]cnc2[C@H]1c1nc2c(F)cccc2s1 [Example 1735]
1 to 5 | O=C(c1ccnn1C1CC1)N1CCc2[nH]cnc2[C@@H]1c1nc2c(F)cccc2s1 [Example 1736, (R)-(1-cyclopropyl-1H-pyrazol-5-yl)(4-(4-fluorobenzo[d]thiazol-2-yl)-6,7-dihydro-1H-imidazo[4,5-c]pyridin-5(4H)-yl)methanone]
< 0.5 | O=C(c1ccnn1CC(F)(F)F)N1CCc2[nH]cnc2[C@H]1c1nc2c(F)cccc2s1 [Example 1737, (S)-(4-(4-fluorobenzo[d]thiazol-2-yl)-6,7-dihydro-1H-imidazo[4,5-c]pyridin-5(4H)-yl)(1-(2,2,2-trifluoroethyl)-1H-pyrazol-5-yl)methanone]
1 to 5 | O=C(c1ccnn1CC(F)(F)F)N1CCc2[nH]cnc2[C@@H]1c1nc2c(F)cccc2s1 [Example 1738, (R)-(4-(4-fluorobenzo[d]thiazol-2-yl)-6,7-dihydro-1H-imidazo[4,5-c]pyridin-5(4H)-yl)(1-(2,2,2-trifluoroethyl)-1H-pyrazol-5-yl)methanone]
< 0.5 | O=C(c1ccnn1C(F)F)N1CCc2[nH]cnc2[C@H]1c1nc2c(F)cccc2s1 [Example 1739]
1 to 5 | O=C(c1ccnn1C(F)F)N1CCc2[nH]cnc2[C@@H]1c1nc2c(F)cccc2s1 [Example 1740, (R)-(1-(difluoromethyl)-1H-pyrazol-5-yl)(4-(4-fluorobenzo[d]thiazol-2-yl)-6,7-dihydro-1H-imidazo[4,5-c]pyridin-5(4H)-yl)methanone]

Further lines, the compound ahead of its results:

SMILES | AC50 [µM]
O=C(c1nnc(-c2ncccc2F)o1)N1CCc2[nH]cnc2[C@@H]1c1nc2ccccc2s1 [Example 1709, (R)-(4-(benzo[d]thiazol-2-yl)-6,7-dihydro-1H-imidazo[4,5-c]pyridin-5(4H)-yl)(5-(3-fluoropyridin-2-yl)-1,3,4-oxadiazol-2-yl)methanone] | < 0.5
O=C(c1nnc(-c2ncccc2F)o1)N1CCc2[nH]cnc2[C@H]1c1nc2ccccc2s1 [Example 1710] | 1 to 5
O=C(c1nnc(-c2ccc(F)cn2)o1)N1CCc2[nH]cnc2[C@H]1c1nc2c(F)cccc2s1 [Example 1711, (S)-(4-(4-fluorobenzo[d]thiazol-2-yl)-6,7-dihydro-1H-imidazo[4,5-c]pyridin-5(4H)-yl)(5-(5-fluoropyridin-2-yl)-1,3,4-oxadiazol-2-yl)methanone] | 1 to 5
O=C(c1nnc(-c2ccc(F)cn2)o1)N1CCc2[nH]cnc2[C@@H]1c1nc2c(F)cccc2s1 [Example 1712, (R)-(4-(4-fluorobenzo[d]thiazol-2-yl)-6,7-dihydro-1H-imidazo[4,5-c]pyridin-5(4H)-yl)(5-(5-fluoropyridin-2-yl)-1,3,4-oxadiazol-2-yl)methanone] | < 0.5
N#Cc1nc(-c2ccccn2)oc1C(=O)N1CCc2[nH]cnc2[C@@H]1c1nc2ccccc2s1 [Example 1713, (R)-5-(4-(benzo[d]thiazol-2-yl)-4,5,6,7-tetrahydro-1H-imidazo[4,5-c]pyridine-5-carbonyl)-2-(pyridin-2-yl)oxazole-4-carbonitrile] | > 5
N#Cc1nc(-c2ccccn2)oc1C(=O)N1CCc2[nH]cnc2[C@H]1c1nc2ccccc2s1 [Example 1714, (S)-5-(4-(benzo[d]thiazol-2-yl)-4,5,6,7-tetrahydro-1H-imidazo[4,5-c]pyridine-5-carbonyl)-2-(pyridin-2-yl)oxazole-4-carbonitrile] | < 0.5
O=C(c1oc(NC2CC2)nc1C(F)F)N1CCc2[nH]cnc2[C@H]1c1nc2ccccc2s1 [Example 1715] | < 0.5
O=C(c1oc(NC2CC2)nc1C(F)F)N1CCc2[nH]cnc2[C@@H]1c1nc2ccccc2s1 [Example 1716, (R)-(4-(benzo[d]thiazol-2-yl)-6,7-dihydro-1H-imidazo[4,5-c]pyridin-5(4H)-yl)(2-(cyclopropylamino)-4-(difluoromethyl)oxazol-5-yl)methanone] | 1 to 5
O=C(c1nnc(-c2ccccn2)o1)N1CCc2[nH]cnc2[C@@H]1c1nc2cccc(F)c2s1 [Example 1717, (R)-(4-(7-fluorobenzo[d]thiazol-2-yl)-6,7-dihydro-1H-imidazo[4,5-c]pyridin-5(4H)-yl)(5-(pyridin-2-yl)-1,3,4-oxadiazol-2-yl)methanone] | 0.5 to 1
O=C(c1nnc(-c2ccccn2)o1)N1CCc2[nH]cnc2[C@H]1c1nc2cccc(F)c2s1 [Example 1718, (S)-(4-(7-fluorobenzo[d]thiazol-2-yl)-6,7-dihydro-1H-imidazo[4,5-c]pyridin-5(4H)-yl)(5-(pyridin-2-yl)-1,3,4-oxadiazol-2-yl)methanone] | < 0.5
O=C(c1nnc(-c2ccccn2)o1)N1CCc2[nH]cnc2[C@@H]1c1nc2ccc(F)cc2s1 [Example 1719, (R)-(4-(6-fluorobenzo[d]thiazol-2-yl)-6,7-dihydro-1H-imidazo[4,5-c]pyridin-5(4H)-yl)(5-(pyridin-2-yl)-1,3,4-oxadiazol-2-yl)methanone] | 1 to 5
O=C(c1nnc(-c2ccccn2)o1)N1CCc2[nH]cnc2[C@H]1c1nc2ccc(F)cc2s1 [Example 1720, (S)-(4-(6-fluorobenzo[d]thiazol-2-yl)-6,7-dihydro-1H-imidazo[4,5-c]pyridin-5(4H)-yl)(5-(pyridin-2-yl)-1,3,4-oxadiazol-2-yl)methanone] | < 0.5
Cn1nc(Cl)cc1C(=O)N1CCc2[nH]cnc2[C@H]1c1nc2c(F)cccc2s1 [Example 1721] | < 0.5
Cn1nc(Cl)cc1C(=O)N1CCc2[nH]cnc2[C@@H]1c1nc2c(F)cccc2s1 [Example 1722, (R)-(3-chloro-1-methyl-1H-pyrazol-5-yl)(4-(4-fluorobenzo[d]thiazol-2-yl)-6,7-dihydro-1H-imidazo[4,5-c]pyridin-5(4H)-yl)methanone] | 1 to 5
COCCn1nccc1C(=O)N1CCc2[nH]cnc2[C@H]1c1nc2c(F)cccc2s1 [Example 1723, (S)-(4-(4-fluorobenzo[d]thiazol-2-yl)-6,7-dihydro-1H-imidazo[4,5-c]pyridin-5(4H)-yl)(1-(2-methoxyethyl)-1H-pyrazol-5-yl)methanone] | < 0.5
COCCn1nccc1C(=O)N1CCc2[nH]cnc2[C@@H]1c1nc2c(F)cccc2s1 [Example 1724, (R)-(4-(4-fluorobenzo[d]thiazol-2-yl)-6,7-dihydro-1H-imidazo[4,5-c]pyridin-5(4H)-yl)(1-(2-methoxyethyl)-1H-pyrazol-5-yl)methanone] | < 0.5
Cn1nncc1C(=O)N1CCc2[nH]cnc2[C@H]1c1nc2c(F)cccc2s1 [Example 1725] | 0.5 to 1
Cn1nncc1C(=O)N1CCc2[nH]cnc2[C@@H]1c1nc2c(F)cccc2s1 [Example 1726, (R)-(4-(4-fluorobenzo[d]thiazol-2-yl)-6,7-dihydro-1H-imidazo[4,5-c]pyridin-5(4H)-yl)(1-methyl-1H-1,2,3-triazol-5-yl)methanone] | 1 to 5
Cn1cc(-c2nnc(C(=O)N3CCc4[nH]cnc4[C@@H]3c3nc4c(F)cccc4s3)o2)cn1 [Example 1727, (R)-(4-(4-fluorobenzo[d]thiazol-2-yl)-6,7-dihydro-1H-imidazo[4,5-c]pyridin-5(4H)-yl)(5-(1-methyl-1H-pyrazol-4-yl)-1,3,4-oxadiazol-2-yl)methanone] | 1 to 5
Cn1cc(-c2nnc(C(=O)N3CCc4[nH]cnc4[C@H]3c3nc4c(F)cccc4s3)o2)cn1 [Example 1728, (S)-(4-(4-fluorobenzo[d]thiazol-2-yl)-6,7-dihydro-1H-imidazo[4,5-c]pyridin-5(4H)-yl)(5-(1-methyl-1H-pyrazol-4-yl)-1,3,4-oxadiazol-2-yl)methanone] | < 0.5
